Experimental findings from patent US8569495B2, “Anthelmintic agents and their use” (Intervet International B.V., priority 2007, dated 2013) are described below.

In the first assay the test system is Ascaridia galli (L3) and Oesophagostomum dentatum (L3 and L4). The assay is described as follows: In vitro anthelmintic activity against larval stages of Ascaridia galli and Oesophagostomum dentatum (MEC). The settings on record: Ascaridia galli, in vitro; A. galli L3, O. dentatum L3 and L4; 20 larvae per well; microscopic examination; read-out: minimum effective concentration (MEC) against one or more of the tested nematodes.
On to `N#Cc1ccc(NC2CCC(OCC(=O)N3CCN(c4ccc(Cl)cc4)CC3)CC2)cc1C(F)(F)F` (centres unmarked) [Example 88], for which the minimal effective concentration was below 1 µM.
`O=C(COC1CCC(Nc2ccc([N+](=O)[O-])c(C(F)(F)F)c2)CC1)N1CCC(c2ccc(Cl)cc2)CC1` (centres unmarked) [Example 73]: the minimal effective concentration was below 1 µM.
Still for that read-out and setting: the figure for `CC(C)(C)c1ccc(N2CCN(C(=O)NCC3CCC(Nc4ccc([N+](=O)[O-])c(C(F)(F)F)c4)CC3)CC2)cc1` (centres unmarked) [Example 143] is below 1 µM; for `O=C(COC1CCC(Nc2ccc(OC(F)(F)F)c(C(F)(F)F)c2)CC1)N1CCN(c2ccc(Cl)cc2)CC1` (centres unmarked) [Example 90] it is below 1 µM.
On the same count and under the same terms, the figure for `CN(CC1CCC(Nc2ccc([N+](=O)[O-])c(C(F)(F)F)c2)CC1)C(=O)C1CCN(c2ccc(C(F)(F)F)cc2)CC1` (centres unmarked) [Example 111] is below 1 µM; for `O=[N+]([O-])c1ccc(NC2CCC(OCC(=S)N3CCN(c4ccc(Cl)c(C(F)(F)F)c4)CC3)CC2)cc1C(F)(F)F` (centres unmarked) [Example 221] it is below 1 µM.
For `O=C(COC1CCC(Nc2ccc([N+](=O)[O-])c(C(F)(F)F)c2)CC1)N1CCCN(c2ccc(Cl)cc2)CC1` (centres unmarked) [Example 150], the minimal effective concentration is below 1 µM.
On the same count and under the same terms, the figure for `CN(CC1CCN(c2ccc(C(C)(C)C)cc2)CC1)C(=O)C1CCC(Nc2ccc([N+](=O)[O-])c(C(F)(F)F)c2)CC1` (centres unmarked) [Example 132] is below 1 µM; for `Cc1ccc(N2CCC(CNC(=O)C3CCC(Nc4ccc([N+](=O)[O-])c(C(F)(F)F)c4)CC3)CC2)cc1` (centres unmarked) [Example 123] it is below 1 µM.
Same read-out and setting: the same measure for `CC(C)(C)c1ccc(N2CCC(CNC(=O)C3CCC(Nc4ccc([N+](=O)[O-])c(C(F)(F)F)c4)CC3)CC2)cc1` (centres unmarked) [Example 122]: below 1 µM; for `Cc1ccc(N2CCN(C(=O)COC3CCC(Nc4ccc([N+](=O)[O-])c(C(F)(F)F)c4)CC3)CC2)c(C)c1` (centres unmarked) [Example 67]: below 1 µM.
On the same count and under the same terms, the same measure for `CC(C)(C)c1ccc(N2CCN(CCOC3CCC(Nc4ccc([N+](=O)[O-])c(C(F)(F)F)c4)CC3)CC2)cc1` (centres unmarked) [Example 116]: below 1 µM.
Regarding `CCOc1ccc(N2CCC(CN(C)C(=O)C3CCC(Nc4ccc([N+](=O)[O-])c(C(F)(F)F)c4)CC3)CC2)cc1` (centres unmarked) [Example 133], the minimal effective concentration was below 1 µM.
With `O=C(NCC1CCC(Nc2ccc([N+](=O)[O-])c(C(F)(F)F)c2)CC1)N1CCN(c2ccc(C(F)(F)F)cc2)CC1` (centres unmarked) [Example 145], the minimal effective concentration is below 1 µM.
Take `CC(C)(C)c1ccc(N2CCN(C(=S)COC3CCC(Nc4ccc(OC(F)(F)F)c(C(F)(F)F)c4)CC3)CC2)cc1` (centres unmarked) [Example 206]: the minimal effective concentration is below 1 µM.
Still for that read-out and setting: the figure for `N#Cc1ccc(NC2CCC(OCC(=S)N3CCN(c4ccc(Cl)cc4)CC3)CC2)cc1C(F)(F)F` (centres unmarked) [Example 209] is below 1 µM; for `N#Cc1cc([N+](=O)[O-])ccc1N[C@H]1CC[C@H](OCC(=O)N2CCN(c3ccc(Cl)cc3)CC2)CC1` [Example 245] it is below 7 µM; for `O=C(COC1CCC(Nc2ccc([N+](=O)[O-])c(C(F)(F)F)c2)CC1)N1CC2CC1CN2c1ccc(C(F)(F)F)cc1` (centres unmarked) [Example 146] it is below 1 µM.
Same read-out and setting: the same measure for `O=C(NCC1CCC(Nc2ccc([N+](=O)[O-])c(C(F)(F)F)c2)CC1)C1CCN(c2ccc(F)cc2)CC1` (centres unmarked) [Example 113]: below 7 µM.

The assay is the same for the next values; noted with them: Ascaridia galli, in vitro; A. galli L3, O. dentatum L3 and L4; 20 larvae per well; microscopic examination; read-out: minimum effective concentration (MEC) against two or more of the tested nematodes.
As to `CN(CC1CCN(c2ccc(Cl)cc2)CC1)C(=O)C1CCC(Nc2ccc([N+](=O)[O-])c(C(F)(F)F)c2)CC1` (centres unmarked) [Example 136], the minimal effective concentration was below 1 µM.
In the case of `N#Cc1ccc(N[C@H]2CC[C@H](OCC(=O)N3CCN(c4ccc(OCc5ccccc5)cc4)CC3)CC2)cc1C(F)(F)F` [Example 25, 4-(trans-4-{2-[4-(4-benzyloxy-phenyl)-piperazin-1-yl]-2-oxoethoxy}-cyclohexylamino)-2-trifluoromethyl-benzonitrile], the minimal effective concentration is below 1 µM.
On the same count and under the same terms, the same measure for `CC(C)(C)c1ccc(N2CCN(C(=S)COC3CCC(Nc4ccc(OC(F)(F)F)c(C(F)(F)F)c4)CC3)CC2)cc1` (centres unmarked) [Example 202]: below 1 µM; for `O=C(COC1CCC(Nc2ccc([N+](=O)[O-])c(C(F)(F)F)c2)CC1)N1CC2CN(c3ccc(Cl)cc3)CC2C1` (centres unmarked) [Example 262]: below 1 µM; for `CC(C)(C)c1ccc(N2CCN(C(=S)COC3CCC(Nc4ccc(Cl)c(C(F)(F)F)c4)CC3)CC2)cc1` (centres unmarked) [Example 215]: below 1 µM.
Still for that read-out and setting: the same measure for `CC(C)(C)c1ccc(N2CCN(C(=O)CO[C@H]3CC[C@H](Nc4ccc(C#N)c(C(F)(F)F)c4)CC3)CC2)cc1` [Example 27, 4-(trans-4-{2-[4-(4-tert-butyl-phenyl)-piperazin-1-yl]-2-oxo-ethoxy}-cyclohexylamino)-2-trifluoromethyl-benzonitrile]: below 1 µM.
As to `O=C(COC1CCC(Nc2ccc(Cl)c(C(F)(F)F)c2)CC1)N1CCN(c2ccc(OCc3ccccc3)cc2)CC1` (centres unmarked) [Example 97], the minimal effective concentration is below 1 µM.
Same read-out and setting: the same measure for `CC(C)(C)c1ccc(C2CCN(C(=O)COC3CCC(Nc4ccc(C#N)c(C(F)(F)F)c4)CC3)CC2)cc1` (centres unmarked) [Example 166]: below 1 µM; for `CCCc1ccc(C2CCN(C(=O)COC3CCC(Nc4ccc(C#N)c(C(F)(F)F)c4)CC3)CC2)cc1` (centres unmarked) [Example 168]: below 1 µM.
For `O=C(COC1CCC(Nc2ccc([N+](=O)[O-])c(C(F)(F)F)c2)CC1)N1CCN(c2ccc(C(F)(F)F)cc2)C(=O)C1` (centres unmarked) [Example 158], the minimal effective concentration is below 1 µM.
For the compound `CSc1ccc(NC2CCN(C(=O)COC3CCC(Nc4ccc([N+](=O)[O-])c(C(F)(F)F)c4)CC3)CC2)cc1C(F)(F)F` (centres unmarked) [Example 188], the minimal effective concentration is below 1 µM.
Still for that read-out and setting: the same measure for `CC(C)(C)c1ccc(N2CCN(C(=O)COC3CCC(Oc4ccc([N+](=O)[O-])c(C(F)(F)F)c4)CC3)CC2)cc1` (centres unmarked) [Example 260]: below 1 µM.
`O=C(COC1CCC(Nc2ccc([N+](=O)[O-])c(C(F)(F)F)c2)CC1)N1CCN(c2ccc(F)cc2F)CC1` (centres unmarked) [Example 71]: the minimal effective concentration was below 1 µM.
Still for that read-out and setting: the same measure for `O=C(COC1CCC(Nc2ccc([N+](=O)[O-])c(C(F)(F)F)c2)CC1)N1CCCN(c2ccc(Cl)cc2)CC1` (centres unmarked) [Example 150]: below 1 µM; for `CN(CC1CCN(c2ccc(C(C)(C)C)cc2)CC1)C(=O)C1CCC(Nc2ccc([N+](=O)[O-])c(C(F)(F)F)c2)CC1` (centres unmarked) [Example 132]: below 1 µM.
Consider `CC(C)(C)c1ccc(N2CCC(CNC(=O)C3CCC(Nc4ccc([N+](=O)[O-])c(C(F)(F)F)c4)CC3)CC2)cc1` (centres unmarked) [Example 122], for which the minimal effective concentration is below 1 µM.
On the same count and under the same terms, the figure for `CCOc1ccc(N2CCC(CN(C)C(=O)C3CCC(Nc4ccc([N+](=O)[O-])c(C(F)(F)F)c4)CC3)CC2)cc1` (centres unmarked) [Example 133] is below 1 µM.
As to `O=C(NCC1CCC(Nc2ccc([N+](=O)[O-])c(C(F)(F)F)c2)CC1)N1CCN(c2ccc(C(F)(F)F)cc2)CC1` (centres unmarked) [Example 145], the minimal effective concentration is below 1 µM.
Same read-out and setting: the same measure for `O=C(CC[C@H]1CC[C@H](Nc2ccc([N+](=O)[O-])c(C(F)(F)F)c2)CC1)N1CCN(c2ccc(C(F)(F)F)cc2)CC1` [Example 41, 3-(trans-4-(4-nitro-3-trifluoromethyl-phenylamino)-cyclohexyl)-1-(4-(4-trifluoromethyl-phenyl)-piperazin-1-yl)-propan-1-one]: below 1 µM; for `CC(C)(C)c1ccc(N2CCN(C(=O)CO[C@H]3CC[C@H](Nc4ccc([N+](=O)[O-])c(C#N)c4)CC3)CC2)cc1` [Example 248]: below 1 µM.

Still in this assay, the particulars now being: Ascaridia galli, read-out: minimum effective concentration (MEC) against one or more of the tested nematodes, in vitro; A. galli L3, O. dentatum L3 and L4; 20 larvae per well; microscopic examination.
Regarding `O=C(COC1CCC(Nc2ccc([N+](=O)[O-])c(C(F)(F)F)c2)CC1)NCCCNc1ccc(C(F)(F)F)cc1` (centres unmarked) [Example 152], the minimal effective concentration is below 1 µM.

The assay is the same for the next values; noted with them: Ascaridia galli, read-out: minimum effective concentration (MEC) against two or more of the tested nematodes, in vitro; A. galli L3, O. dentatum L3 and L4; 20 larvae per well; microscopic examination.
On to `CN(c1ccc([N+](=O)[O-])c(C(F)(F)F)c1)C1CCC(OCC(=S)N2CCN(c3ccc(C(F)(F)F)cc3)CC2)CC1` (centres unmarked) [Example 218], for which the minimal effective concentration is below 1 µM.
